Experimental data published in US20050277615A1, “Pharmaceutical compositions having anti-inflammatory activity” (CAN-FITE BIOPHARMA LTD., priority 2004, published 2005).
Values belong to the molecule of their own block, whether it stands above or below them.

Tests used:
[1] = Preliminary qualitative solubility study; assay type: physicochemical; conditions: 1 mg/ml, ambient temperature
[2] = target: T1, adenosine A1 receptor in rat brain cortex (Rattus norvegicus, UniProt P25099); assay: Radioligand binding, [3H]DPCPX displacement; conditions: rat cortical membranes, 10 μM
T1 construct: the adenosine A1 receptor in rat brain cortex; from tissue; host or cells: rat brain cortex
T1 sequence (P25099 1-326): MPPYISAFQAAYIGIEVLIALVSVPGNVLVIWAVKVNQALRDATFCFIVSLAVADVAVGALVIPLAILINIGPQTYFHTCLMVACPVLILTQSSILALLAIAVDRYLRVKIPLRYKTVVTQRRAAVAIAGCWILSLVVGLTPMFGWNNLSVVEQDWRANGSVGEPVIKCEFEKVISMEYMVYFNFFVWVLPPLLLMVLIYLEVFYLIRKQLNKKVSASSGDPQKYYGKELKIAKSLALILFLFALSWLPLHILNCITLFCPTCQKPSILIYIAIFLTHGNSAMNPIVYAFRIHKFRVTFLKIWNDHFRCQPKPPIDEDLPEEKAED

[3] = target: T2, A2A receptor in rat striatum (Rattus norvegicus, UniProt P30543); assay: Radioligand binding, [3H]ZM 241385 displacement; conditions: [3H]ZM 241385, rat striatal membranes
T2 construct: the A2A receptor in rat striatum; from tissue; host or cells: rat striatum
T2 sequence (P30543 whole entry): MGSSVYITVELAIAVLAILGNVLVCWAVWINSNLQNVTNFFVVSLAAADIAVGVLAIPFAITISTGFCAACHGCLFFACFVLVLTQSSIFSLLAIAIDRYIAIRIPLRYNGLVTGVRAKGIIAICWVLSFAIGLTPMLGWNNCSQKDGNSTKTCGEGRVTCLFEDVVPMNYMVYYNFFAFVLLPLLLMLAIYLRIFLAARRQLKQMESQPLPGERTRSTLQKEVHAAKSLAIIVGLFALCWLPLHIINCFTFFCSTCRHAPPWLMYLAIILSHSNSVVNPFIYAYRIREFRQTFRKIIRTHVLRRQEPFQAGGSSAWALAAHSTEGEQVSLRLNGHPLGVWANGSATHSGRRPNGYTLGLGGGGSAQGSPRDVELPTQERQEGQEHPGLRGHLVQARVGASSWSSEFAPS

[4] = target: T3, human adenosine A2A receptors expressed in CHO cells (Homo sapiens, UniProt P29274); assay: cAMP assay A2A (stimulation of cAMP production); assay type: cell-based
T3 construct: expressed in transfected cells; host or cells: CHO
T3 sequence (P29274 whole entry): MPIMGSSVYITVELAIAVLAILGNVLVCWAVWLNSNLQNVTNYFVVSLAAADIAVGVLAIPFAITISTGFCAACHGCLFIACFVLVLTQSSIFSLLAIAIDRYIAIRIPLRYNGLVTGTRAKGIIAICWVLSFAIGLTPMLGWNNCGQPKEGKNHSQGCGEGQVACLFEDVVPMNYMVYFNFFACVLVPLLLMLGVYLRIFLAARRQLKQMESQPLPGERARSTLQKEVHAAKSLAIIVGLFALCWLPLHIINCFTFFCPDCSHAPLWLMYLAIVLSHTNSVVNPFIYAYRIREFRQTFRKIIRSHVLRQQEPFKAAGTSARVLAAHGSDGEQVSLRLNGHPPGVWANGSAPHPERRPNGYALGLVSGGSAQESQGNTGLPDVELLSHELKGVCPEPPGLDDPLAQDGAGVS
Description: After incubation for 40 minutes at 37° C., 100 μL agonist was added. […] Wells were stored at −20° C. until assay.
Wells were stored at −20° C. until assay. […] As a buffer was used 150 mM K2HPO4/10 mM EDTA/0.2% Bovine Serum Albumine (BSA) at pH 7.5.
(§1) Data Analysis. Apparent Ki and EC50 values were computed from the displacement curves by non-linear regression of the competition curves with the software package Prism (Graph Pad, San Diego, Calif.).

[5] = test system: Experimental autoimmune encephalomyelitis (EAE) in female Lewis rats; assay: MBP-induced EAE in Lewis rats, clinical score; assay type: in vivo, rat; conditions: 10 μg/kg PO BID from day 7, difference in maximal clinical score P<0.01 (FIG. 1)
Description: EAE is an inflammatory demyelinating disease of the nervous system, which serves as a model for multiple sclerosis (MS). EAE was induced by intradermal injection at the base of the tail of female Lewis rats (8 weeks old) with an emulsion consisting of the following for each rat: 100 μg myelin basic protein (MBP) from guinea pig (M2295; Sigma), 0.1 ml Complete Freund's adjuvant (CFA; F5506, Sigma), and 0.2 mg of Mycobacterium tuberculosis H37 Ra (M. tuberculosis, 3114, Difco). The emulsion was injected in two halves into the medial footpad of each hind limb of the rats.
The rats developed clinical EAE symptoms which were graded into the following categories: 0, no neurological symptoms; 1, loss of tail tonus and paralysis of the whole tail; 2, hind limbs weakness; 3, hind limbs paralysis; 4, quadriplegia; 5, moribund. The immunized rats developed acute monophasic EAE within 10 days after immunization.

TNF-α = assay: Western blot of spinal cord protein extract of EAE rats; assay type: in vivo, rat; conditions: treated vs untreated (FIG. 2)
IL-10 = assay: as above; assay type: in vivo, rat; conditions: treated vs untreated (FIG. 2)
phosphorylated GSK-3β = assay: as above; assay type: in vivo, rat; conditions: treated vs untreated (FIG. 2)
EAE in female C57B1 mice = assay: MOG-induced EAE in C57B1 mice, clinical score; assay type: in vivo, mouse; conditions: MOG-immunized C57BL/6J female mice, oral treatment from day 7 (FIG. 3)
Description: . The encephalitogenic emulsion containing MOG (300 μg/mouse) in Complete Freund's adjuvant enriched with 5 mg/mL Mycobacterium Tuberculosis was injected subcutaneously in the right flank of the mouse. A boost of the encephalitogenic emulsion was injected subcutaneously in the left flank one week later. Also, on the day of the first injection of MOG, Pertussis toxin (300 ng/mouse) was injected intraperitoneally at a volume dose of 0.1 mL/mouse. The injection of the Pertussis Toxin was repeated after 48 hours. The mice were observed daily from the 10th day post-EAE induction (first injection of MOG) and the EAE clinical signs were scored as follows:. 0—No neurological signs; 1—Distal limp tail: 1.5—Complete limp tail; 2—Difficulties to return on feet when laid on the back; 3—Ataxia; 4—Early paralysis; 5—Full paralysis; 6—Moribund/Death. […] The clinical score was monitored daily starting with the appearance of neurological signs.

[6] = test system: colitis in male Balb/C mice; assay: Dextran sodium sulfate colitis model; assay type: in vivo, mouse; conditions: 5% DSS Balb/c mice
From the text: Colitis induced by dextran sodium sulfate is a murine model of intestinal inflammation that resembles human inflammatory bowel diseases such as Crohn's disease. Male Balb/C mice, 8 weeks of age were fed for 7 days, with 5% dextran sulfate sodium in distilled water throughout the experiments. […] Weight loss and survival were monitored.

[7] = target: T4, human A3 receptor as expressed in HEK 293 cells (Homo sapiens, UniProt P0DMS8); assay: Radioligand binding, [125I]AB-MECA displacement; conditions: human A3 receptor in HEK 293 cells, ±SEM, n = 3
T4 construct: expressed in transfected cells; host or cells: HEK 293
T4 sequence (P0DMS8 1-318): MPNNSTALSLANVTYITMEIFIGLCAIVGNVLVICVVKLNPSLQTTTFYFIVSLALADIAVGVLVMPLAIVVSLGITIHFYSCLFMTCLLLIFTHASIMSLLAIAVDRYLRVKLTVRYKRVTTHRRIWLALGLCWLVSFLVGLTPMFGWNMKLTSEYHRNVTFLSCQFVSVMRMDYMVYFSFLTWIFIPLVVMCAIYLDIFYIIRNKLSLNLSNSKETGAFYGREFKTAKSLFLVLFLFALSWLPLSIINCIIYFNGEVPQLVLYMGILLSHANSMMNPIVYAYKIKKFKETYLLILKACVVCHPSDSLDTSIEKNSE
Description: General. […] AB-MECA, an A3 receptor agonist, was used. Displacement experiments were performed in the absence of GTP.
Radioligand Binding Studies. […] Incubations were carried out for 1 hr at 37° C. and were terminated by rapid filtration over Whatman GF/B filters, using a Brandell cell harvester (Brandell, Gaithersburg, Md.). Tubes were washed three times with 3 ml of buffer. Radioactivity was determined in a Beckman 5500B γ-counter. Nonspecific binding was determined in the presence of 10^−5 M R-PIA.
as §1

A1 receptor = target: T5, A1 receptor (Rattus norvegicus, UniProt P25099); conditions: Siddiqi et al (1995); cited from earlier work
T5 sequence (P25099 1-326): T1 sequence (P25099 1-326)

A2a receptor = A2a receptor (Rattus norvegicus, UniProt P30543); conditions: Siddiqi et al (1995); cited from earlier work
A2a receptor, sequence (P30543 whole entry): as the sequence (P30543 whole entry) above

[8] = test system: multiple sclerosis (MS) patients; conditions: patients having MS, U.S. Pat. No. 5,506,214; cited from earlier work

Solubility in DMSO ([1]; DMSO): Soluble
Solubility in water ([1]; water): Insoluble
% displacement at 10^−5 M, A1 [2]: 36%
Ki ([3]; ±SEM, n = 3): 60 ± 20 nM
Emax ([4]; CHO): 45 ± 6%
EC50 ([4]; cAMP production, A2A CHO cells): 0.7 ± 0.1 µM
SMILES: CCCCC#Cc1nc(N)c2ncn(C3OC(CSC)C(O)C3O)c2n1 (stereo not drawn) [CF402, 5′-deoxy-2-(1-hexynyl)-5′-methylthioadenosine]
Clinical EAE score vs control group [5]: remarkably low clinical score
Level of TNF-α in spinal cord protein extract (TNF-α): down-regulation
Level of IL-10 in spinal cord protein extract (IL-10): up-regulation
Phosphorylated GSK-3β protein expression level in spinal cord (phosphorylated GSK-3β): decrease
Inhibition of development of EAE clinical signs vs control group (EAE in female C57B1 mice): 40%
Clinical signs of colitis ([6]; 10 μg/kg PO BID from day 4): protected
Weight loss vs control ([6]; 10 μg/kg PO BID from day 4 (FIG. 4)): reduced weight loss

Ki [7]: 120 ± 15 nM
SMILES: OC[C@H]1O[C@@H](n2cnc3c(NC4CCCC4)ncnc32)[C@H](O)[C@@H]1O [CPA]

SMILES: Nc1nc(Cl)nc2c1ncn2[C@H]1C[C@H](O)[C@@H](CO)O1 [CdA, 2-chloro-2′-deoxyadenosine]
Type of action at A1 receptors (A1 receptor): putative partial agonist
Ki (A2a receptor): 20 µM
Effect on MS disease condition [8]: markedly ameliorate

% displacement at 10^−5 M, A2A ([3]; 10 μM): 24%
SMILES: CNC(=O)[C@H]1O[C@@H](n2cnc3c(NCc4cccc(I)c4)nc(Cl)nc32)[C@H](O)[C@@H]1O [Cl-IB-MECA, reference compound]
